According to ChEMBL document CHEMBL1125543, “Urea and 2-imidazolidone derivatives of the muscarinic agents oxotremorine and N-methyl-N-(1-methyl-4-pyrrolidino-2-butynyl)acetamide” (J Med Chem, 1992):
pEC50, pKd: −log10 of the molar value.

What was measured:
[1] = biological target: Muscarinic acetylcholine receptor M3 (Cavia porcellus) (UniProt Q8VH26); test: Relative efficacies determined with oxotremorine as the reference in guinea pig ileum, as a measure of muscarinic acetylcholine receptor M3 agonistic activity; type: functional, tissue-based
Muscarinic acetylcholine receptor M3 (Cavia porcellus), sequence (Q8VH26 1-587): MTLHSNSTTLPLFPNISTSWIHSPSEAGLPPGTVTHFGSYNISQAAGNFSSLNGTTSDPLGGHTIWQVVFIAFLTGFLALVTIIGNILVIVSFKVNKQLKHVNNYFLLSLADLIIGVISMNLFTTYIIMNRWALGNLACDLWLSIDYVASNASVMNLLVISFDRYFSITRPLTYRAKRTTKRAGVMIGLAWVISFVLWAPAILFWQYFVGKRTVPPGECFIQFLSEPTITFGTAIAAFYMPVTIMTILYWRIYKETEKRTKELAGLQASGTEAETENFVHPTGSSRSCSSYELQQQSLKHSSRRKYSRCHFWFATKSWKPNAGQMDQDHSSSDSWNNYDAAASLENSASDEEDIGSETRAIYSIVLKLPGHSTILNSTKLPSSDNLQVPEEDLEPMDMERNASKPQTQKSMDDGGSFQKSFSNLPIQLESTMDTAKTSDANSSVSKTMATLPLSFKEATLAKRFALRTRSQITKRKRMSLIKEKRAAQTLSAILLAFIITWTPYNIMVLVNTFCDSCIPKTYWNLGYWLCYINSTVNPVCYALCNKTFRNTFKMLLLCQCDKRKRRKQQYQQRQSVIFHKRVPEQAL

[2] = biological target: Muscarinic acetylcholine receptor; test: Displacement of [3H]3-quinuclidinyl benzilate ([3H]-QNB) from muscarinic acetylcholine receptor of rat cerebral cortex; type: tissue-based
[3] = biological target: Muscarinic acetylcholine receptor M3 (Cavia porcellus) (UniProt Q8VH26); test: Maximum contractile response relative to carbachol (E max) in guinea pig ileum as muscarinic acetylcholine receptor M3 agonistic/antagonistic activity; type: functional, tissue-based
[4] = biological target: T1, Muscarinic acetylcholine receptor M3 (Cavia porcellus, UniProt Q8VH26); test: Dissociation constant for complex with muscarinic acetylcholine receptor M3 of guinea pig ileum; type: tissue-based
T1 sequence (Q8VH26 whole entry): as the sequence (Q8VH26 1-587) above

[5] = biological target: T1, Muscarinic acetylcholine receptor M3; test: Muscarinic acetylcholine receptor M3 agonistic/antagonistic activity in guinea pig ileum; type: functional, tissue-based

Row | SMILES | Efficacy [1] | Ki [2] | Emax [3] | pKd [4] | pEC50 [5]
1 | CC(C#CCN1CCCC1)N1CCNC1=O (centres undefined) | 0 | 640 nM | 0 | 6.32 | –
2 | C[N+](C)(C)CCOC(N)=O | 5.71 | – | 1 | – | –
3 | CNC(=O)N(C)C(C)C#CCN1CCCC1 (centres undefined) | 0.18 | 4200 nM | 1 | 5.12 | 5.68
4 | CC(=O)N1CCN(CC#CCN2CCCC2)C1=O | 0 | 27400 nM | 0 | – | < 3.52
5 | O=C1NCCN1CC#CCN1CCCC1 | 0.49 | 6500 nM | 1 | 4.52 | 5.57
6 | O=C1CCCN1CC#CCN1CCCC1 [OXOTREMORINE] | 1 | 230 nM | 1 | 5.92 | 7.30
7 | CN1CCN(CC#CCN2CCCC2)C1=O | 0.21 | 1600 nM | 1 | 5.54 | 7.00
8 | CN(CC#CCN1CCCC1)C(N)=O | 0.08 | 10700 nM | 0.57 | 4.31 | 4.35
9 | CC1CCN(CC#CCN2CCCC2)C1=O (centres undefined) | – | – | – | 4.94 | 6.30
10 | O=C1CNC(=O)N1CC#CCN1CCCC1 | 0.12 | 17200 nM | 0.37 | 4.00 | 4.33
11 | O=CN1CCN(CC#CCN2CCCC2)C1=O | 0.14 | 26400 nM | 1 | 4.68 | 5.07
12 | CNC(=O)N(C)CC#CCN1CCCC1 | 0.53 | 15800 nM | 1 | 4.58 | 5.67
13 | CC(C#CCN1CCCC1)N1CCCC1=O (centres undefined) | 0 | 59 nM | 0 | 7.04 | –
14 | CC(=O)N(C)C(C)C#CCN1CCCC1 (centres undefined) | 0.013 | – | 0.83 | 6.62 | 6.72
15 | CC(C#CCN1CCCC1)N(C)C(N)=O (centres undefined) | 0 | 420 nM | 0 | 6.15 | –
